Data reported in patent publication US7381542B2, “Nucleic acids encoding a biogenic amine receptor” (Oregon Health & Science University, priority 2001, dated 2008).
“Also recorded” adds a separate entry of the source. Read-outs that look alike come from different tables or passages of the source.

Key:
rat trace amine receptor = target: T1, rat trace amine receptor (Rattus norvegicus, UniProt Q923Y9, L170Q/L53I/P183L/R211E/S15R); assay: cell-based; assay type: cell-based; settings: for Emax: HEK293, percent of stimulation by p-tyramine, read-out: Maximal Stimulation (% ± SEM)
T1 construct: expression vector containing the full-length rat cDNA clone described above; expressed in transfected cells

[1] = target: T2, human trace amine receptor (Homo sapiens, UniProt Q96RJ0, S183L/Y279S); assay: MAP kinase pathway (Elk-gal/luciferase reporter) stimulation in HEK 293 cells transfected with H2-3 pcDNA3.1; assay type: cell-based; settings: compared with cells incubated in the absence of the ligand; receptor-transfected HEK 293 cells
T2 construct: expressed in transfected cells; host or cells: HEK 293 cells, pcDNA 3.1 vector (construct H2-3 pcDNA3.1)
T2 sequence (Q96RJ0 1-339 S183L/Y279S): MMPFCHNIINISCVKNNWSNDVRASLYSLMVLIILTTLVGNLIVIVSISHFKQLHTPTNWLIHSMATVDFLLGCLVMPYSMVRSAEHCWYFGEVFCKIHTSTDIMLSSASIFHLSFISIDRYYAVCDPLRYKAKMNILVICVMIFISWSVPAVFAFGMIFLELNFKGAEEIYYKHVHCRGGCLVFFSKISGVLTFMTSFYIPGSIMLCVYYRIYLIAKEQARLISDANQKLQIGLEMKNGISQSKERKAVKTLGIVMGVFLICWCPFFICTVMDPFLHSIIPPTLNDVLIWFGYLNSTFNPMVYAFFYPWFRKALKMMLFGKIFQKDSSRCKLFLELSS
From the text: (§1) Control cells were transfected with pcDNA3.1 without the rat trace amine receptor sequences. All cells were also co-transfected with 2 additional constructs: one (elk-gal) that encoded the yeast transcription factor gal under the transcriptional control of an Elk-responsive promoter, and another encoding firefly luciferase under the transcriptional control of a gal-responsive promoter.

[2] = test system: HEK 293 cells transfected with pcDNA3.1; assay: MAP kinase pathway luciferase reporter in control HEK 293 cells transfected with pcDNA3.1 without receptor; assay type: cell-based, human; settings: compared with cells incubated in the absence of the ligand
From the text: as §1

[3] = Table III, cAMP, 1 hour at 37° C., 100 μM IBMX, read-out: EC50 (nM ± SEM)
[4] = untitled table after Table III, first value column, read-out: EC50 (nM), NEUROTRANSMITTERS, first column
[5] = untitled table after Table III, second value column, read-out: EC50 (nM), NEUROTRANSMITTERS, second column (no head of its own)
[6] = EC50 (nM), NEUROTRANSMITTERS, first column
[7] = EC50 (nM), NEUROTRANSMITTERS, second column (no head of its own)
[8] = untitled table after Table III, drugs, read-out: EC50 (nM), DRUGS

T1 sequence (Q923Y9 whole entry S15R/L53I/L170Q/P183L/R211E): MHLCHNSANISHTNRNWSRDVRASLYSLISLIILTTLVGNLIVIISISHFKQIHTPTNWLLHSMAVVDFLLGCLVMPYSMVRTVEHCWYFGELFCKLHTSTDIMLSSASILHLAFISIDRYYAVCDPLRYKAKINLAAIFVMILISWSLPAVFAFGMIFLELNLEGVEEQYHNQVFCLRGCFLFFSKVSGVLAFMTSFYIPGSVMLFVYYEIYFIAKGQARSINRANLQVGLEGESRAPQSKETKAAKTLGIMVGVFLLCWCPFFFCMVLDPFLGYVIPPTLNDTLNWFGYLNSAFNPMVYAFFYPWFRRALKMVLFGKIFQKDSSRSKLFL

SMILES: COc1cc(CCN)ccc1O [3-methoxytyramine]
- potency relative to precursor catecholamines dopamine, norepinephrine, epinephrine (rat trace amine receptor): significantly more potent; also recorded: more potently activated

SMILES: NCCc1c[nH]c2ccc(O)cc12 [5-hydroxytryptamine]
- fold stimulation (luciferase), H2-3 pcDNA3.1 [1]: 1.22 fold
- fold stimulation (luciferase), pcDNA3.1 [2]: 1 fold
- Emax (rat trace amine receptor; Table III): 47 ± 9%
- EC50 (rat trace amine receptor; [3]): 12800 ± 4180 nM
- EC50 (rat trace amine receptor; [4]): 1910 nM
- EC50 (rat trace amine receptor; [5]): 8000 nM

SMILES: CN1CC=C(c2ccccc2)CC1 [MPTP, 1-methyl 4phenyl-1,2,3,6-tetrahydropyridine]
- EC50 (rat trace amine receptor; [3]): 99 ± 11 nM

SMILES: NCC(O)c1ccc(O)cc1 (centres unmarked) [Octopamine]
- EC50 (rat trace amine receptor; EC50 (nM ± SEM)): 1300 ± 350 nM
- EC50 (rat trace amine receptor; [6]): 874 nM
- EC50 (rat trace amine receptor; [7]): 1400 nM

SMILES: NCCc1ccccc1 [Phenethylamine, β-phenethylamine]
- EC50 (rat trace amine receptor; [3]): 237 ± 71 nM
- EC50 (rat trace amine receptor; [4]): 218 nM
- EC50 (rat trace amine receptor; [5]): 124 nM

SMILES: CN[C@H](C)Cc1ccccc1 [R-methamphetamine]
- EC50 (rat trace amine receptor; [8]): 236 nM

SMILES: CN[C@@H](C)Cc1ccccc1 [S-methamphetamine]
- EC50 (rat trace amine receptor; [8]): 188 nM

SMILES: C=CCN1CCc2c(cc(O)c(O)c2Cl)C(c2ccccc2)C1 (centres unmarked) [SKF82958]
- fold stimulation (luciferase), pcDNA3.1 [2]: 0.79 fold

SMILES: CNCC(O)c1ccc(O)cc1 (centres unmarked) [Synephrine]
- EC50 (rat trace amine receptor; [3]): 584 ± 100 nM

SMILES: NCCc1c[nH]c2ccccc12 [Tryptamine]
- EC50 (rat trace amine receptor; [3]): 309 ± 76 nM
- EC50 (rat trace amine receptor; [4]): 248 nM
- EC50 (rat trace amine receptor; [5]): 519 nM

SMILES: CN1C[C@H](C(=O)N[C@]2(C)O[C@@]3(O)[C@@H]4CCCN4C(=O)[C@H](Cc4ccccc4)N3C2=O)C[C@@H]2c3cccc4[nH]cc(c34)C[C@H]21 [dihydroergotamine]
- activation of the trace amine receptor (cAMP production), in words (rat trace amine receptor; listed as dihydroergotsmnine): stimulate camp production

SMILES: N[C@@H](CCC(=O)O)C(=O)O [glutamate]
- activation of the trace amine receptor (cAMP production), in words (rat trace amine receptor): not activated

SMILES: COc1cc(CC(=O)O)ccc1O [homovanillic acid, 3-methoxy4-hydroxyphenylacetic acid]
- activation of the trace amine receptor (cAMP production), in words (rat trace amine receptor): no detectable activity

SMILES: NCCc1cccc(O)c1 [m-tyramine]
- EC50 (rat trace amine receptor; [3]): 5370 ± 1180 nM
- EC50 (rat trace amine receptor; [4]): 7190 nM
- EC50 (rat trace amine receptor; [5]): 5800 nM

SMILES: CNCC(O)c1ccc(O)c(OC)c1 (stereo not drawn) [metanephrine, 3-methoxy-β-4-dihydroxy-N-methyl-β-phenethylamine]
- potency relative to precursor catecholamines dopamine, norepinephrine, epinephrine (rat trace amine receptor): significantly more potent; also recorded: more potently activated

SMILES: COc1cc(C(O)CN)ccc1O (stereo not drawn) [normetanephrine, 3-methoxy-β-4-dihydroxy-β-phenethylamine]
- potency relative to precursor catecholamines dopamine, norepinephrine, epinephrine (rat trace amine receptor): significantly more potent; also recorded: more potently activated

SMILES: COc1ccc(CCN)cc1 [p-methoxy PEA]
- EC50 (rat trace amine receptor; [8]): 346 nM

SMILES: NCCc1ccc(O)cc1 [p-tyramine]
- EC50 (rat trace amine receptor; EC50 (nM ± SEM)): 69 ± 9 nM
- EC50 (rat trace amine receptor; EC50 (nM), DRUGS): 20.2 nM
- EC50 (rat trace amine receptor; [6]): 44.9 nM
- EC50 (rat trace amine receptor; [7]): 82 nM
- Emax (rat trace amine receptor; Table III): 100%
